The supplement of paper PMC10307832

Key:
Experiment in all cases: relative viability (nuclei count vs DMSO), 5 days (fraction); higher = more cells survive
Veliparib + Pictilisib = compound: C[C@]1(c2nc3c(C(N)=O)cccc3[nH]2)CCCN1 [Veliparib] + CS(=O)(=O)N1CCN(Cc2cc3nc(-c4cccc5[nH]ncc45)nc(N4CCOCC4)c3s2)CC1 [Pictilisib] (partner 1 µM)
In short: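 Relative viability was taken as the ratio of nuclei in treated wells to nuclei in vehicle wells. Lung cancer cell lines in 1536-well plates received compounds by pin tool one day after seeding, either one drug alone or a fixed anchor-drug dose plus five library-drug doses (not always all listed) in √10 steps. Nuclei were counted on 4× images after 5 days of treatment, and values are medians of duplicate plates.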

Veliparib = compound: C[C@]1(c2nc3c(C(N)=O)cccc3[nH]2)CCCN1 [Veliparib]
In short: (§1)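 Viability here means nuclei in treated wells divided by nuclei in vehicle wells, reported as the median across plates. Only plates with control CV below 25% and at least one doubling passed. Lung cancer cell lines in 1536-well plates were exposed to five √10-spaced library-drug doses for 5 days and counted from 4× Hoechst images in MetaXpress.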

[1] = compound: COC1=CC=C(C=C1)CN2C=CC3=C2C=C(C=C3)C(=O)NO
In short: as §1

SW 1573
relative viability (Veliparib + Pictilisib; first compound 0.02 µM): 0.459
relative viability (Veliparib + Pictilisib; first compound 0.06325 µM): 0.587
relative viability (Veliparib + Pictilisib; first compound 0.2 µM): 0.476
relative viability (Veliparib + Pictilisib; first compound 0.6325 µM): 0.497
relative viability (Veliparib + Pictilisib; first compound 2 µM): 0.418
relative viability (Veliparib; 0.02 µM): 0.857
relative viability (Veliparib; 0.06325 µM): 0.978
relative viability (Veliparib; 0.2 µM): 0.917
relative viability (Veliparib; 0.6325 µM): 0.885
relative viability (Veliparib; 2 µM): 0.922
relative viability ([1]; 0.253 µM): 1.05
relative viability ([1]; 0.8 µM): 1.09
relative viability ([1]; 2.53 µM): 1.06
relative viability ([1]; 8 µM): 0.759
